Laboratory results taken from US5681832A, “Aroylaniline compounds, pharmaceutical compositions, and methods of using same to inhibit viral activity” (priority 1995, dated 1997).
Where two headings read alike, the source gives them in different places.

How the values were obtained:
HIV-1 = test: in vitro anti-HIV screening (NCI XTT soluble-formazan assay, protection of HIV-1-infected CEM T4 lymphocytes from cytolysis); format: cell-based; settings: for EC50: HIV-1-infected CEM cells, 6 days, approximate values, read-out: EC50 (Molar), 50% effective concentration; for inhibition at 200 µM / inhibition at 20 µM / inhibition at 2 µM / inhibition at 0.2 µM / inhibition at 63.2 µM / inhibition at 6.33 µM / inhibition at 0.634 µM / inhibition at 0.0635 µM: read-out: Percent of Protection; for inhibition at 2 µM / activity at 2 µM: 2.00 × 10^-6 Molar; for inhibition at 0.2 µM / activity at 0.2 µM: 2.00 × 10^-7 Molar; for inhibition at 63.2 µM / activity at 63.2 µM: 6.32 × 10^-5 Molar; for inhibition at 6.33 µM / activity at 6.33 µM: 6.33 × 10^-6 Molar; for inhibition at 0.634 µM / activity at 0.634 µM: 6.34 × 10^-7 Molar; for inhibition at 0.0635 µM / activity at 0.0635 µM: 6.35 × 10^-8 Molar; for activity at 200 µM / activity at 20 µM / activity at 2 µM / activity at 0.2 µM / activity at 63.2 µM / activity at 6.33 µM / activity at 0.634 µM / activity at 0.0635 µM: Human immunodeficiency virus 1, CEM-T4, read-out: Percent of Control, Infected; for TI50 (IC/EC), therapeutic index: IC50/EC50; for Conclusion: NCI anti-HIV screen
Text: The aroylaniline compounds of the present invention were subjected to in vitro screening to determine their anti-HIV activity.
The National Cancer Institute's procedure for testing for agents active against Human Immunodeficiency Virus (HIV) (Weislow, O. W. et al., "New soluble-formazan assay for HIV-1 cytopathic effects: application to high-flux screening of synthetic and natural products for AIDS-antiviral activity," J. Natl Cancer Inst., 81, 577-586 (1989)) is designed to detect agents acting at any stage of the virus reproductive cycle. The assay includes the killing of T4 lymphocytes by HIV. Pursuant to the test, small amounts of HIV are added to cells, and a complete cycle of virus reproduction is necessary to obtain the required cell killing. Agents that interact with virions, cells, or virus gene-products to interfere with viral activities will protect cells from cytolysis. The system is thus designed to detect anti-HIV activity. However, compounds that are chemically labile or are rapidly metabolized in the culture conditions may not show activity in this screen. All tests are compared with at least one positive (e.g., AZT-treated) control done at the same time under identical conditions.
(§1) 1. Candidate agent is dissolved in dimethyl sulfoxide (unless otherwise instructed) and then diluted 1:100 in cell culture medium before preparing serial half-log10 dilutions which are then to 96-well microfilter plates. T4 lymphocytes (CEM cell line) are added, and after a brief interval HIV-1 is added to all wells, resulting in a 1:200 final dilution […]. Uninfected cells with the compound serve as a toxicity control, and infected and uninfected cells without the compound serve as basic controls.
(§2) 2. Cultures are incubated at 37° C. in a 5% carbon dioxide atmosphere for 6 days.
(§3) 3. The tetrazolium salt, XTT, is added to all wells, and cultures are incubated to allow formazan color development by viable cells.
(§4) 4. Individual wells are analyzed spectrophotometrically to quantitate formazan production, and in addition are viewed microscopically for detection of viable cells and confirmation of protective activity.
(§5) 5. Drug-tested virus-infected cells are compared with drug-treated noninfected cells and with other appropriate controls (untreated infected and untreated noninfected cells, drug-containing wells without cells, etc.) on the same plate.
6. Data are reviewed in comparison with other tests done at the same time and a determination about activity is made.
The aroylaniline compounds of the present invention were tested for anti-HIV activity according to the above procedure. FIGS. 1-6 represent test results of the aroylaniline compounds of Compounds 1, 3, 13, 14, 29 and 32.
(§6) FIGS. 1 to 6 display a plot of the log10 of the concentrations (as μg/mL or molar as shown) of the aroylaniline compounds, Compounds 1, 3, 13, 14, 29 and 32, against the measured test values expressed as a percentage of the uninfected, untreated control values. The solid line depicts the percentage of surviving HIV-infected cells treated with sample (at the indicated concentration) relative to uninfected, untreated controls. Thus, the solid line expresses the anti-HIV activity of the compound. The dashed line depicts the percentage of surviving uninfected cells treated with the compound relative to the same uninfected, untreated controls. Thus, the dashed line expresses the growth inhibitory properties of the compound. The viral cytopathic effect […] is indicated by a dotted reference line. […] Survival values of this parameter less than 50% are considered acceptable in the current protocol. Approximate values for 50% effective concentration (EC50) have been calculated for each test and are set forth for these Compounds in Tables 2-7, respectively.

[1] = test system: T4 lymphocytes (CEM cell line); test: toxicity control: survival of uninfected T4 lymphocytes (CEM cell line) treated with compound (growth inhibition); format: cell-based; settings: for IC50: read-out: IC50 (Molar); for activity at 0.0635 µM / activity at 0.2 µM / activity at 0.634 µM / activity at 2 µM / activity at 6.33 µM / activity at 20 µM / activity at 63.2 µM / activity at 200 µM: read-out: Percent of Control, Uninfected
Method: as §1, §2, §3, §4, §5, §6

[2] = Human immunodeficiency virus 1, CCRF-CEM, 144 h
[3] = Human immunodeficiency virus 1, CCRF-CEM, 2.00 × 10^-4 Molar
[4] = Human immunodeficiency virus 1, CCRF-CEM, 2.00 × 10^-5 Molar
[5] = Human immunodeficiency virus 1, CCRF-CEM

O=C(O)CSCc1cc(C(=O)Nc2ccc(C=Cc3ccc(NC(=O)c4cc(CSCC(=O)O)c5cccnc5c4O)cc3S(=O)(=O)O)c(S(=O)(=O)O)c2)c(O)c2ncccc12 [Compound 14]
EC50 (HIV-1; [2]): 0.805 µM | inhibition at 200 µM (HIV-1; [3]): 27.6% | inhibition at 20 µM (HIV-1; [4]): 16.6% | inhibition at 2 µM (HIV-1; [5]): 147% | inhibition at 0.2 µM (HIV-1; [5]): 17.6% | inhibition at 63.2 µM (HIV-1; [5]): 6.56% | inhibition at 6.33 µM (HIV-1; [5]): 151% | inhibition at 0.634 µM (HIV-1; [5]): 25% | inhibition at 0.0635 µM (HIV-1; [5]): 16% | activity at 200 µM (HIV-1; 2.00 × 10^-4 Molar): 29.8% | activity at 20 µM (HIV-1; 2.00 × 10^-5 Molar): 19.1% | activity at 2 µM (HIV-1): 146% | activity at 0.2 µM (HIV-1): 20% | activity at 63.2 µM (HIV-1): 9.36% | activity at 6.33 µM (HIV-1): 149% | activity at 0.634 µM (HIV-1): 27.2% | activity at 0.0635 µM (HIV-1): 18.5% | TI50 (IC/EC), therapeutic index (HIV-1): 2.05 × 10^+2 | Conclusion (HIV-1): CONFIRMED ACTIVE | IC50 ([1]; Homo sapiens, CCRF-CEM, 144 h): 16.5 µM | activity at 0.0635 µM ([1]; Homo sapiens, CCRF-CEM): 80.2% | activity at 0.2 µM ([1]; Homo sapiens, CCRF-CEM): 88.9% | activity at 0.634 µM ([1]; Homo sapiens, CCRF-CEM): 122% | activity at 2 µM ([1]; Homo sapiens, CCRF-CEM): 206% | activity at 6.33 µM ([1]; Homo sapiens, CCRF-CEM): 221% | activity at 20 µM ([1]; Homo sapiens, CCRF-CEM): 15.5% | activity at 63.2 µM ([1]; Homo sapiens, CCRF-CEM): 2.52% | activity at 200 µM ([1]; Homo sapiens, CCRF-CEM): -0.84%

O=C([O-])c1c(O)ccc(O)c1C(=O)Nc1ccc(C=Cc2ccc(NC(=O)c3c(O)ccc(O)c3C(=O)[O-])cc2S(=O)(=O)O)c(S(=O)(=O)O)c1.[Na+].[Na+] [Compound 29, 4,4'-di(2-carboxy-3,6-dihydroxybenzamido)stilbene-2,2'-disulfonic acid disodium salt]
EC50 (HIV-1; [2]): 12.5 µM | inhibition at 200 µM (HIV-1; [3]): 79.7% | inhibition at 20 µM (HIV-1; [4]): 83.3% | inhibition at 2 µM (HIV-1; [5]): 0.58% | inhibition at 0.2 µM (HIV-1; [5]): -1.09% | inhibition at 63.2 µM (HIV-1; [5]): 92.7% | inhibition at 6.33 µM (HIV-1; [5]): 2.47% | inhibition at 0.634 µM (HIV-1; [5]): -0.52% | inhibition at 0.0635 µM (HIV-1; [5]): -3.31% | activity at 200 µM (HIV-1; 2.00 × 10^-4 Molar): 81.1% | activity at 20 µM (HIV-1; 2.00 × 10^-5 Molar): 84.5% | activity at 2 µM (HIV-1): 7.54% | activity at 0.2 µM (HIV-1): 5.99% | activity at 63.2 µM (HIV-1): 93.2% | activity at 6.33 µM (HIV-1): 9.3% | activity at 0.634 µM (HIV-1): 6.52% | activity at 0.0635 µM (HIV-1): 3.92% | TI50 (IC/EC), therapeutic index (HIV-1): > 1.61 × 10^+1 | Conclusion (HIV-1): CONFIRMED ACTIVE | IC50 ([1]; Homo sapiens, CCRF-CEM, 144 h): > 220 µM | activity at 0.0635 µM ([1]; Homo sapiens, CCRF-CEM): 93.2% | activity at 0.2 µM ([1]; Homo sapiens, CCRF-CEM): 93.8% | activity at 0.634 µM ([1]; Homo sapiens, CCRF-CEM): 92.8% | activity at 2 µM ([1]; Homo sapiens, CCRF-CEM): 95.2% | activity at 6.33 µM ([1]; Homo sapiens, CCRF-CEM): 96.7% | activity at 20 µM ([1]; Homo sapiens, CCRF-CEM): 99% | activity at 63.2 µM ([1]; Homo sapiens, CCRF-CEM): 100% | activity at 200 µM ([1]; Homo sapiens, CCRF-CEM): 93%

N,N'-Bis(4-amino-2-sulfobenzoyl)-4,4'-diaminostilbene-2,2-disulfonic acid tetrasodium salt [Compound 32]
Percent of Control, Infected (HIV-1; 2.00 × 10^-4 Molar): 61.85% | Percent of Protection (HIV-1; 2.00 × 10^-4 Molar, 200 µM): 52.90% | Percent of Control, Infected (HIV-1; 2.00 × 10^-5 Molar): 112.68% | Percent of Protection (HIV-1; 2.00 × 10^-5 Molar, 20 µM): 115.65% | Percent of Control, Infected (HIV-1; 2.01 × 10^-6 Molar): 97.97% | Percent of Protection (HIV-1; 2.01 × 10^-6 Molar, 2.01 µM): 97.49% | Percent of Control, Infected (HIV-1; 2.01 × 10^-7 Molar): 14.10% | Percent of Protection (HIV-1; 2.01 × 10^-7 Molar, 0.201 µM): -6.05% | Percent of Control, Infected (HIV-1; 6.33 × 10^-5 Molar): 115.38% | Percent of Protection (HIV-1; 6.33 × 10^-5 Molar, 63.3 µM): 118.99% | Percent of Control, Infected (HIV-1; 6.34 × 10^-6 Molar): 105.65% | Percent of Protection (HIV-1; 6.34 × 10^-6 Molar, 6.34 µM): 106.98% | Percent of Control, Infected (HIV-1; 6.35 × 10^-7 Molar): 26.85% | Percent of Protection (HIV-1; 6.35 × 10^-7 Molar, 0.635 µM): 9.69% | Percent of Control, Infected (HIV-1; 6.36 × 10^-8 Molar): 17.12% | Percent of Protection (HIV-1; 6.36 × 10^-8 Molar, 0.0636 µM): -2.32% | EC50 (HIV-1): 1.08 µM | Conclusion (HIV-1): CONFIRMED ACTIVE | Percent of Control, Uninfected ([1]; 2.00 × 10^-4 Molar): 35.45% | Percent of Control, Uninfected ([1]; 2.00 × 10^-5 Molar): 98.84% | Percent of Control, Uninfected ([1]; 2.01 × 10^-6 Molar): 98.97% | Percent of Control, Uninfected ([1]; 2.01 × 10^-7 Molar): 82.40% | Percent of Control, Uninfected ([1]; 6.33 × 10^-5 Molar): 95.50% | Percent of Control, Uninfected ([1]; 6.34 × 10^-6 Molar): 94.34% | Percent of Control, Uninfected ([1]; 6.35 × 10^-7 Molar): 95.11% | Percent of Control, Uninfected ([1]; 6.36 × 10^-8 Molar): 83.94% | IC50 ([1]; uninfected CEM cells, 6 days): 151 µM
